Results taken from US12629348B2, “Method and composition for treating osteoarthritis” (Vireo Systems, Inc., priority 2013, dated 2026).

Test system: cultured canine chondrocytes
Assay: TNFα release in cultured canine chondrocytes challenged with IL1b
Format: cell-based
Settings: IL1b challenge; FIG. 4
Procedure: The study involved the use of cultured canine chondrocytes (i.e., cells within the joint that are activated during OA). The canine chondrocytes were subjected to an inflammatory challenge in the form of cytokine Interleukin 1 beta (“IL1b”). The canine chondrocytes were then treated with various anti-inflammatory compounds including Alpha-GEE; glucosamine; a TNFα receptor antagonist; and a NSAID (Rimadyl). Alpha-GEE was administered in concentrations ranging from 10 μM to 1000 μM. The resulting effects of the various treatments on both PGE2 release and TNFα release were examined.
A similar time dependent decrease in TNFα release was also observed in chondrocytes treated with Alpha-GEE, as shown in FIG. 4.

| Compound | effect on TNFα release in canine chondrocytes |
| --- | --- |
| CC(C(=O)O)c1ccc2c(c1)[nH]c1ccc(Cl)cc12 (centres unmarked) [Rimadyl] | significant increase |
| N[C@H]1C(O)O[C@H](CO)[C@@H](O)[C@@H]1O (some centres unmarked) [glucosamine] | no significant effect |
